The text below walks through data of patent US4698350A, “1-ethyl-6-fluoro-1,4-dihydro- 7-(2,6-dimethyl-4-pyridinyl)-4-oxo-3-quinolinecarboxylic acid and antibacterial use thereof” (Sterling Drug Inc., priority 1984, dated 1987).

≈ marks a conversion by molar mass, not a printed value. Read-outs that look alike come from different tables or passages of the source. Where only a bound is given, the exact number is not on record here.

For one test, the system named is A. actinomycetemcomitans. Description: Agar dilution MIC, anaerobic microorganisms. The format is cell-based. The note with it: Aggregatibacter actinomycetemcomitans, 48 h. The procedure: (§1) 1. Maintenance. Prior to use, all strains were maintained in the lyophilized state. During the study, cultures were examined on blood agar basal medium supplemented with 5.0% (v/v) defibrinated rabbit blood. Culture transfer was accomplished weekly with all cultures being incubated in an anaerobic atmosphere (GasPak jar; BBL).
(§2) 2. Agar Medium. The basal test medium consisted of trypticase soy agar (40 g), yeast extract (1 g), glucose (2 g) and 960 ml of distilled water pH 7.2. [Mashimo et al., J. Clin. Micro. 17, 187-191 (1983)]. Subsequent to sterilization and cooling to 50° C., the medium was supplemented with 4% (v/v) defibrinated rabbit blood and 0.5 μg/ml menadione (Vitamin K3) The agent under evaluation was also added at this time to the concentration desired. Subsequent to pouring of the plates, they were permitted to dry at 4° C. for 24 hr.
(§3) 3. Determination of Agent MIC. The minimal inhibitory concentration (MIC) of the various test agents was determined using an agar dilution technique. Agents and appropriate reference compounds were added to achieve a series of concentrations ranging between 32 μg/ml and 0.007 μg/ml. The inocula were prepared from 96-hr. cultures grown on the maintenance medium. Subsequent to a purity evaluation, colonies were removed and suspended in trypticase soy broth supplemented with 5 μg/ml menadione and 2% lysed rabbit blood filtrate to achieve an OD650 of 0.1 (this corresponded to approximately 10^8 cells/ml). Cultures were inoculated aerobically on the modified trypticase soy blood agar plates by use of a Steer's replicator (which delivers about 10^5 cells per spot). The plates were allowed to dry for a time not exceeding 30 min. and then incubated at 37° C. under an atmosphere of […], 10% H2 and 5% CO2 maintained in an anaerobic chamber (Coy Manufacturing Co.) for 48 hr. The MIC was defined as the lowest concentration completely inhibiting growth.
(§4) Tetracycline stock solutions (1 mg/ml) were made subsequent to dissolution in water. Stock solutions (1 mg/ml) of the remaining test compounds were made subsequent to dissolution in 1/10 N NaOH.

The test system of a further test is A. viscosus. Description: Agar dilution MIC, anaerobic microorganisms. The note with it: Actinomyces viscosus, 48 h. The format is cell-based. The procedure:
as §1, §2, §3, §4
On the technique in general: Agar dilution tests growth on a series of plates holding different concentrations.

In another test the test system is B. fragilis. Put plainly: Agar dilution MIC, anaerobic microorganisms. The note with it: Bacteroides fragilis, 48 h. The format is cell-based. The method, then: as §1, §2, §3, §4
Another test relates to B. gingivalis. Description: Agar dilution MIC, anaerobic microorganisms. The test is classed as cell-based. The note with it: Porphyromonas gingivalis, 48 h. The procedure:
as §1, §2, §3, §4

The test system of another test is B. intermedius. Put plainly: Agar dilution MIC, anaerobic microorganisms. The test is classed as cell-based. The note with it: Prevotella intermedia, 48 h. The method, then:
as §1, §2, §3, §4

Another test concerns B. melaninogenicus. Description: Agar dilution MIC, anaerobic microorganisms. The test is classed as cell-based. The note with it: 48 h. The method, then: as §1, §2, §3, §4
The next test deals with B. oralis. Description: Agar dilution MIC, anaerobic microorganisms. The test is classed as cell-based. The note with it: Hoylesella oralis, 48 h. The procedure: as §1, §2, §3, §4
Another test concerns Capnocytophaga suptigena. Description: Agar dilution MIC, anaerobic microorganisms. The note with it: 48 h. The format is cell-based. The procedure: as §1, §2, §3, §4
For the next test, the system named is Eikenella corrodens. Put plainly: Agar dilution MIC, anaerobic microorganisms. The note with it: 48 h. The test is classed as cell-based. The method, then:
as §1, §2, §3, §4

A further test relates to F. nucleatum. Description: Agar dilution MIC, anaerobic microorganisms. The test is classed as cell-based. The note with it: Fusobacterium nucleatum, 48 h. The procedure:
as §1, §2, §3, §4

The next test concerns F. polymorphum. Put plainly: Agar dilution MIC, anaerobic microorganisms. The format is cell-based. The note with it: 48 h. The method, then:
as §1, §2, §3, §4

Another test relates to periodontal diseases. The note with it: cited from earlier work; for usefulness in treating periodontal disease (in words): Genco 1981.
For a further test, the system named is Campylobacter sputorum. Put plainly: Agar dilution MIC, anaerobic microorganisms. The test is classed as cell-based. The note with it: 48 h. The method, then: as §1, §2, §3, §4
Another test relates to Wolinella recta. Description: Agar dilution MIC, anaerobic microorganisms. The test is classed as cell-based. The note with it: Campylobacter rectus, 48 h. The procedure: as §1, §2, §3, §4
For test [1], the system named is all thirteen of the target anaerobic microorganisms. Description: Antimicrobial activity against anaerobic microorganisms. The format is cell-based. The method, then:
as §1, §2, §3, §4

Setting [2] is: A. actinomycetemcomitans, read-out: MIC.
Where [3] appears, read: B. melaninogenicus, read-out: MIC.
[4] abbreviates: Capnocytophaga suptigena, read-out: MIC.

Regarding `CN(C)C1C(=O)C(C(N)=O)=C(O)C2(O)C(=O)C3=C(O)c4c(O)cccc4C(C)(O)C3CC12` (centres unmarked) [9,424], the MIC worked out at 1 µg/mL (≈ 2.25 µM) against A. actinomycetemcomitans; 2 µg/mL (≈ 4.5 µM) with A. viscosus; 1 µg/mL (≈ 2.25 µM) in the test with B. fragilis; 0.12 µg/mL (≈ 0.27 µM) against B. gingivalis; 2 µg/mL (≈ 4.5 µM) with B. intermedius; 0.5 µg/mL (≈ 1.13 µM) with B. melaninogenicus. In addition, the MIC against B. oralis is 0.12 µg/mL (≈ 0.27 µM); against Capnocytophaga suptigena (Capnocytophaga), 1 µg/mL (≈ 2.25 µM); against Eikenella corrodens it was 2 µg/mL (≈ 4.5 µM); in the test with F. nucleatum it was 0.75 µg/mL (≈ 1.69 µM); in the test with F. polymorphum, 0.12 µg/mL (≈ 0.27 µM). In addition, in the test on periodontal diseases, the “usefulness in treating periodontal disease (in words)” value is listed as “particularly useful”. Besides, the “activity against microorganisms considered to participate in periodontal disease (in words)” value with periodontal diseases was “not active against all the microorganisms”.
As to `CCn1cc(C(=O)O)c(=O)c2ccc(-c3ccncc3)cc21` [35,213, 1-ethyl-1,4-dihydro-4-oxo-7-(4-pyridinyl)-3-quinolinecarboxylic acid], the MIC with A. actinomycetemcomitans (setting [2]) was 0.12 µg/mL (≈ 0.408 µM); in the test on A. viscosus (A. viscosus, read-out: MIC), greater than 10 µg/mL; in the test with B. fragilis (B. fragilis, read-out: MIC) it was greater than 10 µg/mL; in the test on B. gingivalis (B. gingivalis, read-out: MIC), greater than 10 µg/mL; with B. intermedius (B. intermedius, read-out: MIC) it was 0.5 µg/mL (≈ 1.7 µM); in the test with B. melaninogenicus (setting [3]), 8 µg/mL (≈ 27.2 µM). In addition, the MIC with B. oralis (B. oralis, read-out: MIC) was greater than 10 µg/mL; in the test with Campylobacter sputorum, greater than 10 µg/mL; in the test on Capnocytophaga suptigena (setting [4]), 1 µg/mL (≈ 3.4 µM); with Eikenella corrodens (read-out: MIC), 8 µg/mL (≈ 27.2 µM); in the test with F. nucleatum (F. nucleatum, read-out: MIC) it was greater than 10 µg/mL; in the test on F. polymorphum (F. polymorphum, read-out: MIC) it was greater than 10 µg/mL. This compound also had an MIC against Wolinella recta of 0.5 µg/mL (≈ 1.7 µM).
In the case of `CCn1cc(C(=O)O)c(=O)c2cc(F)c(N3CCN(C)CC3)cc21` [50,150, 1-ethyl-6-fluoro-1,4-dihydro-7-(4-methyl-1-piperazinyl)-4-oxo-3-quinolinecarboxylic acid], the MIC is 0.06 µg/mL (≈ 0.18 µM) with A. actinomycetemcomitans (setting [2]); greater than 10 µg/mL in the test with A. viscosus (A. viscosus, read-out: MIC); 8 µg/mL (≈ 24 µM) with B. fragilis (B. fragilis, read-out: MIC); 4 µg/mL (≈ 12 µM) in the test with B. gingivalis (B. gingivalis, read-out: MIC); 0.5 µg/mL (≈ 1.5 µM) in the test on B. intermedius (B. intermedius, read-out: MIC); 4 µg/mL (≈ 12 µM) in the test with B. melaninogenicus (setting [3]). The MIC with B. oralis (B. oralis, read-out: MIC) was determined as 4 µg/mL (≈ 12 µM); with Campylobacter sputorum it was 4 µg/mL (≈ 12 µM); with Capnocytophaga suptigena (setting [4]) it was 0.25 µg/mL (≈ 0.75 µM); in the test with Eikenella corrodens (read-out: MIC) it was 4 µg/mL (≈ 12 µM); in the test on F. nucleatum (F. nucleatum, read-out: MIC) it was 8 µg/mL (≈ 24 µM); with F. polymorphum (F. polymorphum, read-out: MIC), 8 µg/mL (≈ 24 µM). In the test with Wolinella recta, this compound yielded an MIC of 0.25 µg/mL (≈ 0.75 µM). Moreover, in test [1], the “antimicrobial activity (in words)” value is “less active”.
On to `CCn1cc(C(=O)O)c(=O)c2cc(F)c(N3CCNCC3)cc21` [50,297, 1-ethyl-6-fluoro-1,4-dihydro-4-oxo-7-(1-piperazinyl)-3-quinolinecarboxylicacid], for which the MIC with A. actinomycetemcomitans (setting [2]) was 0.06 µg/mL (≈ 0.188 µM); with A. viscosus (A. viscosus, read-out: MIC), greater than 10 µg/mL; in the test on B. fragilis (B. fragilis, read-out: MIC), greater than 10 µg/mL; in the test with B. gingivalis (B. gingivalis, read-out: MIC), 4 µg/mL (≈ 12.5 µM); in the test with B. intermedius (B. intermedius, read-out: MIC) it was 0.5 µg/mL (≈ 1.57 µM); in the test with B. melaninogenicus (setting [3]) it was 4 µg/mL (≈ 12.5 µM). The MIC in the test with B. oralis (B. oralis, read-out: MIC) is 4 µg/mL (≈ 12.5 µM); against Campylobacter sputorum it was 2 µg/mL (≈ 6.26 µM); in the test on Capnocytophaga suptigena (setting [4]), 0.5 µg/mL (≈ 1.57 µM); in the test with Eikenella corrodens (read-out: MIC) it was 4 µg/mL (≈ 12.5 µM); in the test with F. nucleatum (F. nucleatum, read-out: MIC), 8 µg/mL (≈ 25.1 µM); in the test with F. polymorphum (F. polymorphum, read-out: MIC), greater than 10 µg/mL. Further, the MIC against Wolinella recta stood at 0.12 µg/mL (≈ 0.376 µM). For the same compound, the “antimicrobial activity (in words)” value in test [1] is reported as “less active”.
In the case of `Cc1ncc([N+](=O)[O-])n1CCO` [metronidazole], in the test on periodontal diseases, the “usefulness in treating periodontal disease (in words)” value is recorded as “particularly useful” and the “activity against microorganisms considered to participate in periodontal disease (in words)” value is “not active against all the microorganisms”.
